Where two headings read alike, the source gives them in different places.
Tests used:
[1] = Caco-2 permeability determination; type: in vitro ADME; conditions: human
Procedure: Caco-2 permeability determination. Caco-2 permeability determination was carried out […]
Caco-2 cells were obtained from the ATCC (Cat#HTB-37) and maintained in Dulbecco’s modified Eagle’s Medium containing 10% fetal bovine serum, 1% glutamine, 1% nonessential amino acids, 100 μg/mL streptomycin, and 100 U/mL penicillin.
CO2 and 90% relative humidity environment. Caco-2 cells were passaged every 7 days at a ratio of 1:10. Cells were used between passages 30 and 40. After 21 days of culture, the integrity of the cell monolayer was verified by measuring the transepithelial electrical […]
Drug transport from the apical side to the basolateral side (A-B) and from the basolateral side to the apical side was measured simultaneously under the same condition.
Propranolol and atenolol were used as the […] control, respectively.
Digoxin was used as the positive control for Pgp-mediated drug efflux. In brief, the method was as follows. After washing the monolayer with HBSS three times, the compounds were diluted and added to the appropriate well (pH 6.8 for apical side and pH […]
7.4 for basolateral side). […] Samples were […]
collected from the donor side at 5 and 95 min, and from the receiver side at 35 and 95 min post-incubation. The concentration of samples was measured by LC-MS/MS. The Papp was calculated from the following equation:
Papp = (VA/(SA×T))×([drug]acceptor/ [durg]initial donor )
Where VA is the volume of the acceptor well, SA is the surface area of the membrane, T is the total transport time, [drug]acceptor is the drug level at the acceptor side, and [drug]initial donor is the drug level at the donor side at T = 0. […]

[2] = Solubility in water determined by LC-MS/MS; type: physicochemical
[3] = tested on: ICR mice; test: Oral glucose tolerance test (OGTT) in ICR mice; type: in vivo, mouse
Procedure: Blood glucose levels were measured berefore and after glucose loading. *p < 0.05, **p < 0.01 vs. control. Error bar indicateds SEM (standard error of the mean). […]
Oral glucose tolerance test (OGTT) and gallbladder filling assay in ICR mice. 100 […]
mice (n = 7-8) 90 min prior to the oral glucose load (4 g/kg). Blood glucose levels were measured via blood drops obtained by clipping the tail of the mice using an Accu-Chek Advantage II Glucose Monitor (Roche, Indianapolis, IN, USA) before compound dosing and 0, 15, 30, 60, and 120 min after the glucose load. The area under the concentration−time curve from 0 to 120 min (AUC0−120 min, Glu) of blood glucose after the glucose load was calculated by the trapezoidal rule. […]

[4] = Pharmacokinetics assay of 26a in ob/ob mice (plasma and intestinal tissue); type: in vivo, mouse
Procedure: The blood and intestinal tissue samples were collected before dosing or 2, 4, 6, 10, 16, and 24 h after dosing. Density of intestinal tissue was taken as 1 g/ml. Error bar indicates SEM. […]
Pharmacokinetics assay of 26a in ob/ob mice. […]
administered to 12 h-fasted ob/ob mice (n = 3 per time point). Blood and intestinal tissue samples were collected before dosing or 2 h, 4 h, 6 h, 10 h 16 h, 24 h after dosing. Blood samples were centrifuged at 11000 rpm for 5 min to isolate the plasma. 25 μL of the sample was mixed with 75 μL MeOH. After centrifugation at 11000 rpm for 5 mins, the supernatant was analyzed by LC-MS/MS.
The tissues were ground and homogenated with 0.9% NaCl solution (1:4, w/v), and then the homogenates were centrifuged at 12,000 rpm for 10 min at 4 °C. The supernatant was collected, and 100 μL aliquot of supernatant was spiked with 300 μL methanol, and then treated as the same fashion as plasma sample. […]

[5] = tested on: ob/ob mice; test: Gallbladder filling assay in ob/ob mice; type: in vivo, mouse; conditions: once a day oral dose 100 mg/kg (single dose)
Procedure: Figure 8 (A) Relative gallbladder area and (B) relative bile weight after once a day oral dose or 3-day treatment. […] 1 h after the final dose, mice were re-fed for 3 h and then the gallbladder was removed and the area measured using a vernier caliper. The relative gallbladder area was calculated from the length multiplied by the width of the gallbladder. Bile weight was measured using analytical balances. **p < 0.01; ***p < 0.001. Error bar indicates SEM.
Acute efficacy in ob/ob mice. 7-week-old ob/ob mice (male) were divided into three groups (n = 8) based on 2 h-fasted blood glucose. […]
mg/kg) and 0.25% CMC (control) was then orally administered to 2 h-fasted mice, and blood glucose was measured at 2, 4, 6, 8, 10, and 24 h after dosing. […]
then divided into 3 subgroup of different time point (n = 8-9 each subgroup). […] Concentrations of active GLP-1[7-36 amide] in the serum were measured using ELISA kit from Linco Research. […]
administered to 12 h-fasted ob/ob mice (n = 3 per time point). […] After centrifugation at 11000 rpm for 5 mins, the supernatant was analyzed by LC-MS/MS. […]
administered orally to overnight-fasted ob/ob mice (male, n = 3-6). 1 h after dosing, mice were refed for 3 hours, and then gallbladders were removed, and the area was measured using vernier caliper. The relative gallbladder area was calculated from the length multiplied by the width of the gallbladder. […]

Papp A→B at 95 min ([1]; Caco-2, apical to basolateral side): 0.06 ×10⁻⁶ cm/s | Papp B→A at 95 min ([1]; Caco-2, basolateral to apical side): 0.8 ×10⁻⁶ cm/s | solubility [2]: 1800 µg/mL | time of Cmax in intestinal tissue ([4]; 100 mg/kg p.o. single dose): 2 h | time of Cmax in plasma ([4]; 100 mg/kg p.o. single dose): 2 h | Cmax ([4]; male, mouse, colon, po, 100 mg/kg p.o., at 2 h, tissue density taken as 1 g/ml, read-out: Cmax in colon tissue): 27 µg/mL | Cmax ([4]; male, mouse, duodenum, po, 100 mg/kg p.o., at 2 h, tissue density taken as 1 g/ml, read-out: Cmax in duodenum tissue): 136 µg/mL | Cmax ([4]; male, mouse, ileum, po, 100 mg/kg p.o., at 2 h, tissue density taken as 1 g/ml, read-out: Cmax in ileum tissue): 331 µg/mL | concentration at 24 h ([4]; male, mouse, intestinal tissue, po, 100 mg/kg p.o. single dose, read-out: level in intestinal tissue at 24 h): > 0.8 µg/mL | Cmax ([4]; male, mouse, jejunum, po, 100 mg/kg p.o., at 2 h, tissue density taken as 1 g/ml, read-out: Cmax in jejunum tissue): 92 µg/mL | Cmax ([4]; male, mouse, plasma, po, 100 mg/kg p.o. single dose, read-out: Cmax in plasma): 0.071 µg/mL | concentration at 10 h ([4]; male, mouse, plasma, po, 100 mg/kg p.o. single dose, read-out: drug concentration in plasma after 10 h): < 0.01 µg/mL
Compound: CN(CC[N+](C)(C)C)C(=O)CCc1cc(Cl)c(Oc2ccsc2C(=O)N2CCN(C3CC3)c3ccccc32)cc1Cl [Compound 26a]
AUC0–120 min of blood glucose, signed change vs control (OGTT, Fig. 3B) ([3]; 100 mg/kg p.o.): -18% | decrease of blood glucose AUC vs control (OGTT) ([3]; 100 mg/kg p.o. 1.5 h before glucose 4 g/kg): 18% | bile weight vs control [5]: did not increase gallbladder area or bile weight significantly | gallbladder area vs control [5]: did not increase gallbladder area or bile weight significantly

From PMC4919643, “Intestinally-targeted TGR5 agonists equipped with quaternary ammonium have an improved hypoglycemic effect and reduced gallbladder filling effect” (Scientific Reports, 2016)
